Source: US20040176323A1, “Pharmaceutical composition comprising lysophophatidic acid” (priority 2001, published 2004)

Key:
[1] = tested on: ICR mice with sepsis induced by cecal ligation and puncture; test: Cecal ligation and puncture (CLP) model test, survival in sepsis; type: in vivo; settings: 5 ICR mice; for 48-hour survival rate (%) (Mice survived/All mice): control 0% (0/5); for 24-hour survival rate (%) (Mice survived/All mice): control 20% (1/5)
From the text: Cecal Ligation and Puncture (CLP) Model Test
To verify excellent preventive and therapeutic effects of LPA as an effective ingredient of the pharmaceutical composition according to the present invention on sepsis, this test using CLP model animals in which sepsis was caused by inducing peritonitis by cecal ligation and puncture was undertaken.
After anesthetizing 15 ICR mice (weighing about 25 to 30 g; availably from MJ Ltd.) with pentobarbital, a right region of their abdomen was excised in 1 cm length to expose cecum, followed by ligating the lower area of ileocecal valve, making six punctures on the cecum with a 21 gauge needle and then suturing the abdomen, thereby inducing sepsis with the model mice.
At 2 and 4 hours after suturing, LPA(oleoyl-sn-glycerol-3-phosphate; Sigma Co.) dissolved in 10% DMSO solution was intraperitoneally administered to 5 ICR mice at a dose of about 10 mg/kg (Group A) and to another 5 ICR mice at a dose of about 50 mg/kg (Group B), and only a 10% DMSO solution was intraperitoneally administered to the other 5 ICR mice (Control group). The survival rates of ICR mice in groups A and B and control group were investigated in course of time.

[2] = tested on: Sprague-Dawley rats with permanent focal cerebral ischemia by occlusion of middle cerebral artery; test: Rat model with permanent focal cerebral ischemia by occlusion of middle cerebral artery, infarct area and volume; type: in vivo; settings: 20 mg/kg subcutaneously at 1 hour before and 2 and 6 hours after surgery
From the text: To verify excellent preventive and therapeutic effects of LPA as an effective component of the pharmaceutical composition according to the present invention on stroke, the test using rat models induced with permanent focal cerebral ischemia by occlusion of middle cerebral artery, designed as follows, was undertaken.
Rat Model Induced with Permanent Focal Cerebral Ischemia by Occulusion of Middle Cerebral Artery
12 male Sprague-Dawley rats weighing about 250 to 269 g, were anaesthetized through inhalation of a mixed solution of 70% […] and 30% oxygen gas, the solution containing 2% isoflurane (Choongwae Pharma Corp., Korea), and then subjected to a slightly modified Nagasawa and Kogure's method (Nagasawa H and Kogure K (1989) Correlation between cerebral blood flow and histologic changes in a new rat model of middle cerebral artery occlusion. Stroke 20: 1037-1043), leading to occlusion of their right middle cerebral artery. Specifically, rats were anaesthetized, and then their cervix was incised along by the middle line of their neck. Then, after separately ligating their right common carotid artery and their external carotid artery carefully so as not to cause damage to their vagus nerve, the junction of their internal carotid artery were slightly cut and then a 17 mm long silicon rubber cylinder was carefully inserted thereinto, followed by ligating the internal carotid artery on the inserted cylinder. […]
At 24 hours after surgery, the rats of the test group and the control group were decapitated, and their brains were rapidly extracted, followed by washing with a cold saline solution. […] After the brain sections stained with TTC were fixed with 10% phosphate-buffered formalin, the area of cerebral infarcts on the posterior side of each section, which was visualized as an area of unstained tissue, was determined separately for cortex and striatum, by using an image analyzer.
In order to correct a change in the area of cerebral infarcts due to cerebral edema, the area of cerebral infarcts on each section was determined by subtracting the […] area in the right hemisphere with occluded middle cerebral artery from the area of the left hemisphere with unoccluded middle cerebral artery. Total areas of cerebral infarcts, obtained by summing the areas of infarcts in cortex and striatum that were measured at each brain section, were averaged, and the results were shown in FIG. 1. […]

[3] = Group A: about 10 mg/kg intraperitoneally at 2 and 4 hours after suturing
[4] = Group B: about 50 mg/kg intraperitoneally at 2 and 4 hours after suturing
[5] = 24 hours after surgery, mean±standard deviation, 4 test rats, p<0.001

oleoyl-sn-glycerol-3-phosphate [LPA]
48-hour survival rate (%) (Mice survived/All mice) [1, 3]: 40% (2/5)
24-hour survival rate (%) (Mice survived/All mice) [1, 3]: 60% (3/5)
48-hour survival rate (%) (Mice survived/All mice) [1, 4]: 40% (2/5)
24-hour survival rate (%) (Mice survived/All mice) [1, 4]: 60% (3/5)
reduction of the infarcted volume in cortex compared with control group rats [2, 5]: 44.6±3.6%
reduction of the infarcted volume in striatum compared with control group rats [2, 5]: 55.3±21.0%
reduction of total infarcted volume compared with control group rats [2, 5]: 47.8±7.1%
total area of infarcts (cortex and striatum) compared to control group rats ([2]; measured 24 hours after surgery, FIG. 1): noticeable reduction in total area of infarcts
